# Results from patent US7998924B2, “Compounds that bind to p185 and methods of using the same” (The Trustees of The University of Pennsylvania, priority 2001, dated 2011).
# “Also recorded” adds a separate entry of the source. Like-named read-outs stand apart in the source and are kept apart here. Positions of bridges follow the written chain, without caps; N, C: chain ends. Residues, ends and D or L forms follow the SMILES beside them. No end group written: not given here.
# What was measured:
# [1] = Peptide solubility in PBS buffer at 1 mg/mL; type: physicochemical; settings: pH 7.4, 1 mg/mL
# Experimental: These peptides could be readily dissolved in the PBS buffer, pH 7.4, at 1 mg/mL concentration without adjustment of pH.
# HER2 receptor = biological target: T1, HER2 receptor (Homo sapiens, UniProt P04626); experiment: Biacore (surface plasmon resonance) binding of peptides to immobilized HER2; settings: for kon: read-out: binding to HER2 kon
# T1 construct: Recombinant purified HER2 receptor composed of the ectodomain of HER2 fused to the Fc of human IgG; purchased Xcyte Therapeutics, Seattle, Wash; (provided by Dr. Che Law; a gift, not a catalogue product)
# From the text: Binding of AHNP has been studies by means of surface plasmon resonance (Biacore) technology. In Biacore experiments, one of the interacting molecules (termed the ligand) is immobilized on the sensor surface, and the other interactant (termed the analyte) is continuously flown over that surface in a micro-flow cell. The interaction between the ligand and the analyte are monitored using a light source that is reflected at the immobilized chip. Binding of the analyte to the immobilized ligand changes the resonance angle of the reflected light due to changes in the refractive index of the surface. The response is plotted in real time in the form of sensorgram curves. The advantage with this approach is its sensitivity, ease of use, and ability to perform experiments with few microgram quantities of proteins and peptides. In addition, the kinetic binding studies reveal association and disassociation rates of the analyte which may be more relevant for understanding the pharmacokinetics of drug-receptor interactions.
# Binding experiments were performed with the surface plasmon resonance based biosensor instrument Biacore 3000 (Biacore AB, Uppsala, Sweden) at 25° C. Recombinant purified HER2 receptor composed of the ectodomain of HER2 fused to the Fc of human IgG was provided by Dr. Che Law, Xcyte Therapeutics, Seattle, Wash. Immobilization of HER2 in the sensor surface was performed following the standard amine coupling procedure according to manufacturer's instructions. Briefly, 35 pit of a solution containing 0.2M N-ethyl-N-(dimethylaminopropyl) carbodiimide (EDC) and 0.05 M N-hydroxysuccinimide (NHS) were injected at a flow rate of 5 μL/min to activate carboxyl groups on the sensor chip surface. HER2 (40 ng/mL in 10 mM NaOAc buffer, pH 5.0) was flowed over the chip surface at a flow rate of 20 μL/min until the desired level bound protein was reached. Unreacted protein was washed out and unreacted activated groups were blocked by the injection of 35 μL of 1 M ethanolamine at 5 μL/min. […] A reference surface was generated simultaneously under the same conditions but without HER2 injection and used as a blank to correct for instrument and buffer artifacts. Peptides were injected at variable concentrations at 20 μL/min flow rate and binding to the HER2 receptor immobilized on the chip was monitored in real time. Each sensorgram consists of an association phase (first 240 s), reflecting binding of the injected peptide to the receptor, followed by a dissociation phase (300 s), during which the running buffer is passed over the chip and the bound peptide is being washed off the receptor surface.
# T6-17 cells = settings: for % inhibition of T6-17 cell proliferation in MTT assays: 1 μg/mL of peptides for 48 h
# Experimental: (See reference 46 below.) HER2-expressing transformed tumor cells (T6-17) were used for this purpose. […] Each value represents an average of at least four samples.
# The MTT assay has been used for measuring cell growth as previously described in ref 446. Briefly, T6-17 cells were seeded in 96-well plates overnight in DMEM containing 10% FBS (1000 per well). T6-17 is derived from NIH3T3 by overexpressing the human HER2 receptor. Cells were cultured in 100 μL of fresh medium containing 1 μg/mL of peptides for 48 h. […] A total of 25 μL of MTT solution (5 mg/mL in PBS) was added to each well, and after 2 h of incubation at 37° C., 100 μA of the extraction buffer (20% w/v of SDS, 50% N,N-dimethyl formamide, pH 4.7) were added. After an overnight incubation at 37° C., the optical density at 600 rim was measured using an ELISA reader.
# [2] = test system: MCF-7 parental strain (MCF/Par) p185-expressing cells; experiment: Combination treatment with tamoxifen, growth inhibition, MCF-7 parental; type: cell-based; settings: peptide 1 μg/ml plus tamoxifen
# [3] = test system: MCF-7/H2 p185-overexpressing cells; experiment: Combination treatment with tamoxifen, growth inhibition, MCF-7/H2; type: cell-based; settings: peptide 1 μg/ml plus tamoxifen
# [4] = Biacore, immobilized HER2, 25° C., read-out: binding to HER2 KD
# [5] = Biacore, immobilized HER2, 25° C., read-out: binding to HER2 koff
# [6] = Biacore, immobilized HER2, 25° C.
# T1 sequence (P04626 23-652 limits assumed): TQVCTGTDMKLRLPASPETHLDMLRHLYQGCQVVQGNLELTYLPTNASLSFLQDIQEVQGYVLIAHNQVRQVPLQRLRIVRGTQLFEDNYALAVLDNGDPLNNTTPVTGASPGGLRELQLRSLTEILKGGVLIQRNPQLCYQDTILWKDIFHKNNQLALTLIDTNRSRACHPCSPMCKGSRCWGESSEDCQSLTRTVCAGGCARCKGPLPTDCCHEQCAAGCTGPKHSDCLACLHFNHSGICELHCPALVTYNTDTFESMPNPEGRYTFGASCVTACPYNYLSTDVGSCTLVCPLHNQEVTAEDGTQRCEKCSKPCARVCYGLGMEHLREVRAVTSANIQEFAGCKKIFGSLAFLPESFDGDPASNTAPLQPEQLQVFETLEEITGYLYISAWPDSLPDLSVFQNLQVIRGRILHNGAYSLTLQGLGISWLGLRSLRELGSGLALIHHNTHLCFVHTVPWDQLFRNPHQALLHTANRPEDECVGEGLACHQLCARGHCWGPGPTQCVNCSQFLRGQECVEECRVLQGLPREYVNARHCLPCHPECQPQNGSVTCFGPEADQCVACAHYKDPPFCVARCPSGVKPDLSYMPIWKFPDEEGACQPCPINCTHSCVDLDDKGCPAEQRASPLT
koff (HER2 receptor; [5]),kon (HER2 receptor; [6]),Compound,solubility [1],solubility (in words) [1],Kd (HER2 receptor; [4]),also measured
0.000808 s⁻¹,1110 M⁻¹ s⁻¹,CSCC[C@H](NC(=O)[C@H](Cc1ccc(O)cc1)NC(=O)[C@@H]1CSSC[C@H](NC(=O)[C@H](Cc2ccccc2)NC(=O)CN)C(=O)N[C@@H](CC(=O)O)C(=O)NCC(=O)N[C@@H](Cc2ccccc2)C(=O)N[C@@H](Cc2ccc(O)cc2)C(=O)N[C@@H](C)C(=O)N1)C(=O)N[C@@H](CC(=O)O)C(=O)N[C@H](C(=O)O)C(C)C [Peptide 7] (H-GFCDGFYACYMDV-OH; disulfide 3-9),> 1000 µg/mL,increased solubility; also recorded: good solubility,0.73 µM,
0.00125 s⁻¹,219 M⁻¹ s⁻¹,CC(C)[C@H](NC(=O)[C@H](CC(=O)O)NC(=O)[C@H](CCCCN)NC(=O)[C@H](Cc1ccc(O)cc1)NC(=O)[C@@H]1CSSC[C@H](NC(=O)[C@@H](N)Cc2ccccc2)C(=O)N[C@@H](CC(=O)O)C(=O)NCC(=O)N[C@@H](Cc2ccccc2)C(=O)N[C@@H](Cc2ccc(O)cc2)C(=O)N[C@@H](C)C(=O)N1)C(=O)O [Peptide 6] (H-FCDGFYACYKDV-OH; disulfide 2-8; N-terminus assumed),> 1000 µg/mL,much higher solubility,5.7 µM,fold decrease in binding affinity for HER2 (HER2 receptor; Lys-containing analogues vs parent peptide): 8.8 fold; decrease in binding affinity (HER2 receptor; Met replaced with Lys): about 1 order of magnitude
,,CSCC[C@H](NC(=O)[C@H](Cc1ccc(O)cc1)NC(=O)[C@H](CS)NC(=O)[C@H](C)NC(=O)[C@H](Cc1ccc(O)cc1)NC(=O)[C@H](Cc1ccccc1)NC(=O)CNC(=O)[C@H](CC(=O)O)NC(=O)[C@H](CS)NC(=O)[C@@H](N)Cc1ccccc1)C(=O)N[C@@H](CC(=O)O)C(=O)N[C@H](C(=O)O)C(C)C [Peptide 9],> 1000 µg/mL,much higher solubility,,Kd (HER2 receptor): 3.56 µM; koff (HER2 receptor; read-out: binding to HER2 koff): 0.00106 s⁻¹; kon (HER2 receptor): 298 M⁻¹ s⁻¹; % inhibition of T6-17 cell proliferation in MTT assays (T6-17 cells): 12.8%
,,CSCC[C@H](NC(=O)[C@H](Cc1ccc(O)cc1)NC(=O)[C@@H]1CSSC[C@H](NC(=O)[C@@H](N)Cc2ccccc2)C(=O)N[C@@H](CC(=O)O)C(=O)NCC(=O)N[C@@H](Cc2ccccc2)C(=O)N[C@@H](Cc2ccc(O)cc2)C(=O)N[C@@H](C)C(=O)N1)C(=O)N[C@@H](CC(=O)O)C(=O)N[C@H](C(=O)N[C@@H](CCCCN)C(N)=O)C(C)C [Peptide 5] (H-FCDGFYACYMDVK-NH2; disulfide 2-8),< 1000 µg/mL,no improvement in solubility,0.83 µM,lower receptor affinity than 7 (HER2 receptor; relative to peptide 7): 14%
0.000701 s⁻¹,922 M⁻¹ s⁻¹,CSCC[C@H](NC(=O)[C@H](Cc1ccc(O)cc1)NC(=O)[C@@H]1CSSC[C@H](NC(=O)[C@@H](N)Cc2ccccc2)C(=O)NCC(=O)N[C@@H](CC(=O)O)C(=O)NCC(=O)N[C@@H](Cc2ccccc2)C(=O)N[C@@H](Cc2ccc(O)cc2)C(=O)N[C@@H](C)C(=O)N1)C(=O)N[C@@H](CC(=O)O)C(=O)N[C@H](C(=O)O)C(C)C [Peptide 8] (H-FCGDGFYACYMDV-OH; disulfide 2-9; N-terminus assumed),> 1000 µg/mL,much higher solubility,,
,,FCGDGFYACYMDV-NH2 (disulfide 2-9 (inferred)) [SEQ ID NO: 143],,,,growth inhibition in combination with tamoxifen (in words) [2]: enhanced in vitro inhibition of proliferation; growth inhibition in combination with tamoxifen (in words) [3]: enhanced in vitro inhibition of proliferation
,,CSCC[C@H](NC(=O)[C@H](Cc1ccc(O)cc1)NC(=O)[C@@H]1CSSC[C@H](NC(=O)[C@@H](N)Cc2ccccc2)C(=O)N[C@@H](CC(=O)O)C(=O)NCC(=O)N[C@@H](Cc2ccccc2)C(=O)N[C@@H](Cc2ccc(O)cc2)C(=O)N[C@@H](C)C(=O)N1)C(=O)N[C@@H](CC(=O)O)C(=O)N[C@H](C(=O)O)C(C)C [Peptide 2],< 1000 µg/mL,no improvement in solubility,0.65 µM,"fold increase in binding affinity for HER2 relative to the comparator peptide (HER2 receptor; 2 vs linear 9, AHNP vs 2, 3 vs AHNP): more than 5 fold; koff (HER2 receptor; read-out: binding to HER2 koff): 0.000643 s⁻¹; kon (HER2 receptor): 990 M⁻¹ s⁻¹; % inhibition of T6-17 cell proliferation in MTT assays (T6-17 cells): 22.3%"

Compound,koff (HER2 receptor; [5]),kon (HER2 receptor; [6]),solubility [1],solubility (in words) [1],Kd (HER2 receptor; [4]),also measured
CSCC[C@H](NC(=O)[C@@H](Cc1ccc(O)cc1)NC(=O)[C@@H]1CSSC[C@H](NC(=O)[C@H](N)Cc2ccccc2)C(=O)N[C@@H](CC(=O)O)C(=O)NCC(=O)N[C@@H](Cc2ccccc2)C(=O)N[C@@H](Cc2ccc(O)cc2)C(=O)N[C@@H](C)C(=O)N1)C(=O)N[C@@H](CC(=O)O)C(=O)N[C@H](C(N)=O)C(C)C [Peptide 4],0.000603 s⁻¹,1720 M⁻¹ s⁻¹,> 1000 µg/mL,much higher solubility,0.35 µM,
CSCC[C@H](NC(=O)[C@H](Cc1ccc(O)cc1)NC(=O)[C@@H]1CSSC[C@H](NC(=O)[C@@H](N)Cc2ccc(O)cc2)C(=O)N[C@@H](CC(=O)O)C(=O)NCC(=O)N[C@@H](Cc2ccccc2)C(=O)N[C@@H](Cc2ccc(O)cc2)C(=O)N[C@@H](C)C(=O)N1)C(=O)N[C@@H](CC(=O)O)C(=O)N[C@H](C(N)=O)C(C)C [Peptide 3] (H-YCDGFYACYMDV-NH2; disulfide 2-8; N-terminus assumed),0.000294 s⁻¹,1960 M⁻¹ s⁻¹,< 1000 µg/mL,,,"koff (HER2 receptor; Biacore, immobilized HER2, read-out: koff): 0.000294 s⁻¹; Kd (HER2 receptor; Biacore, read-out: receptor-binding affinity KD): 0.15 µM; biological activity in the MTT assay relative to comparator (in words) (T6-17 cells; T6-17 cells): almost twice the activity of AHNP; growth inhibition in combination with tamoxifen (in words) [2]: enhanced growth inhibition; growth inhibition in combination with tamoxifen (in words) [3]: enhanced growth inhibition"
